Columns and labels:
[1] = test system: IL-13 induced STAT6 phosphorylation in BEAS-2B human lung epithelial cells; settings: BEAS-2B cells
[2] = test system: IL-4 induced STAT6 phosphorylation in THP-1 human monocytic cells; settings: THP-1 cells

| Structure (SMILES) | BEAS2B pIC50 [1] | THP-1 IL4 pIC50 [2] |
| --- | --- | --- |
| Cc1cnc2cc(Nc3cc(C)[nH]n3)nc(N[C@@H]3C[C@H]4CCC[C@@H](C3)N4CCC#N)c2c1 [Example 6-6] | A (A represents a pEC50 value ≥7.5 (EC50≤32 nM)) | A (A represents a pEC50 value ≥7.5 (EC50≤32 nM)) |
| Cc1cnc2cc(Nc3cc(C)[nH]n3)nc(N[C@@H]3C[C@H]4CCC[C@@H](C3)N4S(=O)(=O)N3CC(C#N)C3)c2c1 [Example 6-9] | A (A represents a pEC50 value ≥7.5 (EC50≤32 nM)) | A (A represents a pEC50 value ≥7.5 (EC50≤32 nM)) |
| Cc1cnc2cc(Nc3cc(C)[nH]n3)nc(N[C@@H]3C[C@H]4CC[C@@H](C3)N4CCC#N)c2c1 [Example 6-1] | A (A represents a pEC50 value ≥7.5 (EC50≤32 nM)) | A (A represents a pEC50 value ≥7.5 (EC50≤32 nM)) |
| Cc1cc(Nc2nc(N[C@@H]3C[C@H]4CCC[C@@H](C3)N4Cc3ccncc3)c3cccnc3c2F)n[nH]1 [Example 8-14] | A (A represents a pEC50 value ≥7.5 (EC50≤32 nM)) | A (A represents a pEC50 value ≥7.5 (EC50≤32 nM)) |
| Cc1cc(Nc2cc3ncccc3c(N[C@@H]3C[C@H]4CCC[C@@H](C3)N4CCC#N)n2)n[nH]1 [Example 1-31] | A (A represents a pEC50 value ≥7.5 (EC50≤32 nM)) | A (A represents a pEC50 value ≥7.5 (EC50≤32 nM)) |
| Cc1cc(Nc2cc3ncccc3c(N[C@@H]3C[C@H]4CCC[C@@H](C3)N4Cc3cccnc3)n2)n[nH]1 [Example 1-47] | A (A represents a pEC50 value ≥7.5 (EC50≤32 nM)) | A (A represents a pEC50 value ≥7.5 (EC50≤32 nM)) |
| COc1ccc2c(N[C@@H]3C[C@H]4CC[C@@H](C3)N4CCCC#N)nc(Nc3cc(C)[nH]n3)cc2n1 [Example 5-2] | A (A represents a pEC50 value ≥7.5 (EC50≤32 nM)) | – |
| Cc1cc(Nc2cc3ncc(S(C)(=O)=O)cc3c(N[C@@H]3C[C@H]4CC[C@@H](C3)N4Cc3ccncc3)n2)n[nH]1 [Example 6-59] | C (C represents a pEC50 value <6.7 (EC50>200 nM)) | – |
| Cc1cc(Nc2nc(N[C@@H]3C[C@H]4CCC[C@@H](C3)N4S(=O)(=O)c3cncc(F)c3)c3cccnc3c2F)n[nH]1 [Example 8-13] | A (A represents a pEC50 value ≥7.5 (EC50≤32 nM)) | – |
| Cc1cc(Nc2nc(N[C@@H]3C[C@H]4CCC[C@@H](C3)N4S(=O)(=O)c3cccnc3)c3cccnc3c2F)n[nH]1 [Example 8-12] | A (A represents a pEC50 value ≥7.5 (EC50≤32 nM)) | A (A represents a pEC50 value ≥7.5 (EC50≤32 nM)) |
| Cc1cc(Nc2nc(N[C@@H]3C[C@H]4CC[C@@H](C3)N4S(C)(=O)=O)c3cccnc3c2F)n[nH]1 [Example 8-2] | C (C represents a pEC50 value <6.7 (EC50>200 nM)) | A (A represents a pEC50 value ≥7.5 (EC50≤32 nM)) |
| Cc1cc(Nc2cc3ncccc3c(N[C@@H]3C[C@H]4CCC[C@@H](C3)N4S(=O)(=O)N3CCCC3)n2)n[nH]1 [Example 4-27] | A (A represents a pEC50 value ≥7.5 (EC50≤32 nM)) | A (A represents a pEC50 value ≥7.5 (EC50≤32 nM)) |
| COc1ccc2c(N[C@@H]3C[C@H]4CCC[C@@H](C3)N4CCC#N)nc(Nc3cc(C)[nH]n3)cc2n1 [Example 5-10] | A (A represents a pEC50 value ≥7.5 (EC50≤32 nM)) | A (A represents a pEC50 value ≥7.5 (EC50≤32 nM)) |
| Cc1cc(Nc2cc3ncccc3c(N[C@@H]3C[C@H]4CCC[C@@H](C3)N4C(=O)c3cncc(C#N)c3)n2)n[nH]1 [Example 2-26] | C (C represents a pEC50 value <6.7 (EC50>200 nM)) | – |
| Cc1cc(Nc2cc3ncccc3c(N[C@@H]3C[C@H]4CCC[C@@H](C3)N4CCC(F)(F)F)n2)n[nH]1 [Example 1-44] | A (A represents a pEC50 value ≥7.5 (EC50≤32 nM)) | A (A represents a pEC50 value ≥7.5 (EC50≤32 nM)) |
| Cc1cc(Nc2cc3ncccc3c(N[C@@H]3C[C@H]4CCC[C@@H](C3)N4Cc3ccncc3C#N)n2)n[nH]1 [Example 1-56] | A (A represents a pEC50 value ≥7.5 (EC50≤32 nM)) | A (A represents a pEC50 value ≥7.5 (EC50≤32 nM)) |
| Cc1cc(Nc2cc3ncccc3c(N[C@@H]3C[C@H]4CC[C@@H](C3)N4CC(C)C#N)n2)n[nH]1 (stereo partly shown) [Example 1-23] | A (A represents a pEC50 value ≥7.5 (EC50≤32 nM)) | A (A represents a pEC50 value ≥7.5 (EC50≤32 nM)) |
| Cc1cc(Nc2cc3ncccc3c(N[C@@H]3C[C@H]4CCC[C@@H](C3)N4C(=O)c3ccnc(C#N)c3)n2)n[nH]1 [Example 2-30] | C (C represents a pEC50 value <6.7 (EC50>200 nM)) | – |
| COc1cnc2cc(Nc3cc(C)[nH]n3)nc(N[C@@H]3C[C@H]4CC[C@@H](C3)N4C(=O)OCC(C)C)c2c1 [Example 6-25] | A (A represents a pEC50 value ≥7.5 (EC50≤32 nM)) | – |
| Cc1cc(Nc2nc(N[C@@H]3C[C@H]4CCC[C@@H](C3)N4S(=O)(=O)c3ccccc3)c3cccnc3c2F)n[nH]1 [Example 8-11] | A (A represents a pEC50 value ≥7.5 (EC50≤32 nM)) | – |
| Cc1cc(Nc2cc3ncccc3c(N[C@@H]3C[C@H]4CC[C@@H](C3)N4C(=O)C(C)F)n2)n[nH]1 (stereo partly shown) [Example 2-3] | A (A represents a pEC50 value ≥7.5 (EC50≤32 nM)) | – |

| Structure (SMILES) | BEAS2B pIC50 [1] | THP-1 IL4 pIC50 [2] |
| --- | --- | --- |
| Cc1cc(Nc2nc(N[C@@H]3C[C@H]4CC[C@@H](C3)N4S(=O)(=O)c3cncc(F)c3)c3cccnc3c2F)n[nH]1 [Example 8-5] | A (A represents a pEC50 value ≥7.5 (EC50≤32 nM)) | – |
| Cc1cnc2c(F)c(Nc3cc(C)[nH]n3)nc(N[C@@H]3C[C@H]4CC[C@@H](C3)N4S(=O)(=O)c3cccnc3)c2c1 [Example 8-20] | – | C (C represents a pEC50 value <6.7 (EC50>200 nM)) |
| Cc1cc(Nc2cc3ncccc3c(N[C@@H]3C[C@H]4CCC[C@@H](C3)N4S(=O)(=O)C3CNC3)n2)n[nH]1 [Example 4-21] | – | C (C represents a pEC50 value <6.7 (EC50>200 nM)) |
| COCCOC(=O)N1[C@@H]2CCC[C@H]1C[C@H](Nc1nc(Nc3cc(C)[nH]n3)cc3ncccc13)C2 [Example 3-9] | – | A (A represents a pEC50 value ≥7.5 (EC50≤32 nM)) |
| CCC(CC#N)N1[C@@H]2CC[C@H]1C[C@H](Nc1nc(Nc3cc(C)[nH]n3)cc3ncccc13)C2 (stereo partly shown) [Example 1-22] | A (A represents a pEC50 value ≥7.5 (EC50≤32 nM)) | – |
| Cc1cc(Nc2cc3ncccc3c(N[C@@H]3C[C@H]4CC[C@@H](C3)N4C(=O)CN(C)C)n2)n[nH]1 [Example 2-5] | – | C (C represents a pEC50 value <6.7 (EC50>200 nM)) |
| Cc1cc(Nc2cc3ncccc3c(N[C@@H]3C[C@H]4CC[C@@H](C3)N4CC(=O)N[C@@H]3CCOC3=O)n2)n[nH]1 [Example 1-11] | – | C (C represents a pEC50 value <6.7 (EC50>200 nM)) |
| COCCCN1[C@@H]2CC[C@H]1C[C@H](Nc1nc(Nc3cc(C)[nH]n3)cc3ncccc13)C2 [Example 1-15] | – | C (C represents a pEC50 value <6.7 (EC50>200 nM)) |
| C=CCOC(=O)N1[C@@H]2CC[C@H]1C[C@H](Nc1nc(Nc3cc(C)[nH]n3)cc3nc(OC)ccc13)C2 [Example 5-7] | A (A represents a pEC50 value ≥7.5 (EC50≤32 nM)) | – |
| COc1ccnc2cc(Nc3cc(C)[nH]n3)nc(N[C@@H]3C[C@H]4CC[C@@H](C3)N4C(=O)CN(C)C)c12 [Example 7-3] | – | C (C represents a pEC50 value <6.7 (EC50>200 nM)) |
| Cc1cc(Nc2cc3ncccc3c(N[C@@H]3C[C@H]4CCC[C@@H](C3)N4C(=O)c3ccc(C#N)nc3)n2)n[nH]1 [Example 2-28] | C (C represents a pEC50 value <6.7 (EC50>200 nM)) | – |
| Cc1cc(Nc2nc(N[C@@H]3C[C@H]4CCC[C@@H](C3)N4C(=O)CN(C)C)c3cccnc3c2F)n[nH]1 [Example 8-15] | – | C (C represents a pEC50 value <6.7 (EC50>200 nM)) |
| C=CCOC(=O)N1[C@@H]2CC[C@H]1C[C@H](Nc1nc(Nc3cc(C)[nH]n3)cc3nc(CN4CCOCC4)ccc13)C2 [Example 5-17] | A (A represents a pEC50 value ≥7.5 (EC50≤32 nM)) | – |
| Cc1cc(Nc2cc3nc(CN4CCOCC4)ccc3c(N[C@@H]3C[C@H]4CCC[C@@H](C3)N4CCC#N)n2)n[nH]1 [Example 5-26] | – | A (A represents a pEC50 value ≥7.5 (EC50≤32 nM)) |
| Cc1cc(Nc2cc3ncccc3c(N[C@@H]3C[C@H]4CC[C@@H](C3)N4CCC(F)(F)F)n2)n[nH]1 [Example 1-10] | – | C (C represents a pEC50 value <6.7 (EC50>200 nM)) |
| Cc1cnc2cc(Nc3cc(C)[nH]n3)nc(N[C@@H]3C[C@H]4CC[C@@H](C3)N4Cc3ccncc3)c2c1 [Example 6-2] | – | A (A represents a pEC50 value ≥7.5 (EC50≤32 nM)) |
| CCC(=O)N1[C@@H]2CCC[C@H]1C[C@H](Nc1nc(Nc3cc(C)[nH]n3)cc3ncccc13)C2 [Example 2-15] | – | A (A represents a pEC50 value ≥7.5 (EC50≤32 nM)) |
| C=CCOC(=O)N1[C@@H]2CCC[C@H]1C[C@H](Nc1nc(Nc3cc(C)[nH]n3)cc3ncccc13)C2 [Example 3-8] | – | A (A represents a pEC50 value ≥7.5 (EC50≤32 nM)) |
| Cc1cc(Nc2cc3nc(CS(C)(=O)=O)ccc3c(N[C@@H]3C[C@H]4CC[C@@H](C3)N4CCF)n2)n[nH]1 [Example 5-41] | – | C (C represents a pEC50 value <6.7 (EC50>200 nM)) |
| Cc1cc(Nc2cc3nc(CN4CCOCC4)ccc3c(N[C@@H]3C[C@H]4CCC[C@@H](C3)N4S(C)(=O)=O)n2)n[nH]1 [Example 5-22] | A (A represents a pEC50 value ≥7.5 (EC50≤32 nM)) | – |
| COC(=O)CCCN1[C@@H]2CC[C@H]1C[C@H](Nc1nc(Nc3cc(C)[nH]n3)cc3ncccc13)C2 [Example 1-3] | – | C (C represents a pEC50 value <6.7 (EC50>200 nM)) |

From US10947254B2, “Methods for treating ulcerative colitis using 3-((1R,3s,5S)-3-((7-((5-methyl-1H-pyrazol-3-yl)amino)-1,6-naphthyridin-5-yl)amino)-8-azabicyclo[3.2.1]octan-8-yl)propanenitrile” (priority 2015, dated 2021)
